Assay results: patent US9393288B2, “Methods of treating diseases associated with PPARγ” (The University of Vermont and State Agricultural College, priority 2012, dated 2016)

System: parenchymal arterioles (PA)
Assay: Pressurized arteriograph: vascular reactivity and structure of PA from relaxin-treated NP Sprague Dawley rats
Format: in vivo, rat
Settings: for Kind of structural remodeling of PA: normotensive NP rats
From the text: Animals and Treatment Groups: All procedures were approved by the Institutional Animal Care and Use Committee and conducted in accordance with the National Institutes of Health Guide for the Care and Use of Laboratory Animals. Female virgin NP Sprague Dawley rats (250-300 g, 14-16 weeks, Charles River, Canada) were used for all experiments and housed in the University of Vermont Animal Care Facility. Animals were randomly selected and grouped as untreated (N=4), treated with recombinant human relaxin-2 (relaxin, 4 μg/hr; N=14), relaxin plus a specific PPARγ inhibitor GW9662 (10 mg/kg daily in food; N=8), or vehicle (20 mM sodium acetate; N=14) for 10 days through osmotic minipumps (Alzet 2ML2, Durect Corp., Cupertino, Calif., USA). GW9662 treatment was started 1 day before and for the duration of relaxin treatment to ensure PPARγ was inhibited. Animals were anesthetized with 3% isoflurane and minipumps implanted subcutaneously in the back of the neck. All animals received post-surgical analgesic (buprenorphine, 50 μg/kg, s.c.). Relaxin infusion was continuous for 10 days until animals were euthanized for vessel experiments and tissue collection. The minipumps used were capable of delivering relaxin for 14 days and thus tissue collection was within this duration.
Vessel Preparation and Pressurized Arteriograph System: After collecting trunk blood, the brain was quickly removed and placed in cold physiological salt solution (PSS). In the first set of experiments, PA between the M1 and M2 region of the MCA territory and the MCA from the same animals were carefully isolated from vehicle- or relaxin-treated animals and mounted on glass cannulas in a dual-chambered arteriograph such that one PA and one MCA from each animal were studied simultaneously. PA were identified as branches off the MCA that penetrated into the brain tissue, as previously described (25). In the second set of experiments, PA from the same brain region as above were dissected from relaxin+GW9662-treated animal and compared to PA from vehicle- and relaxin-treated animals. MCA were not studied in this second set of animals because there was no effect of relaxin on that segment of the vasculature. The proximal cannulas were connected to an in-line pressure transducer and a servo-null pressure control system (Living Systems Instrumentation, Burlington, Vt., USA) that allowed intravascular pressure to be maintained at a set pressure or changed at a variable rate. The distal cannulas were closed during the experiment to avoid flow-mediated responses. Temperature and pH were continuously measured and maintained at 37.0±0.5° C. and 7.40±0.05, respectively. Measurements of inner diameter (ID) and wall thickness (WT) were made via video microscopy (Living Systems Instrumentation).
Vascular Reactivity and Structural Characteristics in PA and MCA: For the first set of experiments, PA and MCA were equilibrated for 1 hour at 25 mmHg, after which myogenic activity was determined by stepwise increases in pressure from 40 to 100 mmHg for PA or 50 to 175 mmHg for MCA. ID and WT were measured at each pressure once stable. Changes in ID and WT were measured in PA only in response to small- (SKCa) and intermediate- (IKCa) conductance calcium-activated potassium channels blockers, apamin (3×10^−7 M) and TRAM-34 (10^−6 M), respectively. PA are unique in that the contribution of endothelium-derived hyperpolarizing factors (EDHF) to tone is greater than most vessels Cipolla et al. (2009) Stroke 40, 1451-1457. Thus, inhibition of SKCa/IKCa channels, a critical component in the EDHF pathway, causes constriction in PA Cipolla et al. (2009) Stroke 40, 1451-1457. We therefore assessed the effect of relaxin on constriction of PA in response to SKCa/IKCa channel inhibition in order to assess this unique pathway. […]

[1] = relaxin- vs vehicle-treated NP rats
[2] = relaxin- vs vehicle-treated NP rats, all pressures studied

## relaxin
  Kind of structural remodeling of PA: hypertrophic outward remodeling
Listed as Relaxin
  Kind of structural remodeling of PA: outward hypertrophic remodeling
Normotensive rats
  Distensibility of PA: without affecting
[1]
  CSA of PA wall: increased
  OD of PA: increased
  Passive WT of PA: increased
  Response of PA to SKCa/IKCa inhibition (apamin, TRAM-34): no difference
  Tone of PA: did not significantly affect
[2]
  Active diameter of PA: increase
  Passive ID of PA: significantly increased
